Patent publication US20230391739A1, “ARYL DERIVATIVES FOR TREATING TRPM3 MEDIATED DISORDERS” (Katholieke Universiteit Leuven, priority 2020, published 2023)

Target: T1, mouse TRPM3α2 (mTRPM3) ion channel (Mus musculus, UniProt J9SQF3)
T1 construct: expressed in transfected cells; host or cells: flip-in HEK293
Assay: TRPM3 ion channel driven Ca2+ uptake, Fluo-4 AM assay, PS-stimulated (mTRPM3)
Format: cell-based
Details: TRPM3 overexpressing flip-in HEK293 cells stimulated with Pregnenolone sulfate (PS) 50 μM, activity ranges A, B, C
In short: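 Flp-In HEK293 cells overexpressing mTRPM3α2 were added, in Ca²⁺-free Krebs, to wells already holding compound and 50 μM pregnenolone sulfate in Ca²⁺-containing Krebs. Fluo-4 AM fluorescence (ex 485/em 535 nm) was read immediately. Percent inhibition was computed from RFU relative to PS/vehicle wells and a positive-control inhibitor.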

T1 sequence (J9SQF3 1-1709 isoform J9SQF3-12): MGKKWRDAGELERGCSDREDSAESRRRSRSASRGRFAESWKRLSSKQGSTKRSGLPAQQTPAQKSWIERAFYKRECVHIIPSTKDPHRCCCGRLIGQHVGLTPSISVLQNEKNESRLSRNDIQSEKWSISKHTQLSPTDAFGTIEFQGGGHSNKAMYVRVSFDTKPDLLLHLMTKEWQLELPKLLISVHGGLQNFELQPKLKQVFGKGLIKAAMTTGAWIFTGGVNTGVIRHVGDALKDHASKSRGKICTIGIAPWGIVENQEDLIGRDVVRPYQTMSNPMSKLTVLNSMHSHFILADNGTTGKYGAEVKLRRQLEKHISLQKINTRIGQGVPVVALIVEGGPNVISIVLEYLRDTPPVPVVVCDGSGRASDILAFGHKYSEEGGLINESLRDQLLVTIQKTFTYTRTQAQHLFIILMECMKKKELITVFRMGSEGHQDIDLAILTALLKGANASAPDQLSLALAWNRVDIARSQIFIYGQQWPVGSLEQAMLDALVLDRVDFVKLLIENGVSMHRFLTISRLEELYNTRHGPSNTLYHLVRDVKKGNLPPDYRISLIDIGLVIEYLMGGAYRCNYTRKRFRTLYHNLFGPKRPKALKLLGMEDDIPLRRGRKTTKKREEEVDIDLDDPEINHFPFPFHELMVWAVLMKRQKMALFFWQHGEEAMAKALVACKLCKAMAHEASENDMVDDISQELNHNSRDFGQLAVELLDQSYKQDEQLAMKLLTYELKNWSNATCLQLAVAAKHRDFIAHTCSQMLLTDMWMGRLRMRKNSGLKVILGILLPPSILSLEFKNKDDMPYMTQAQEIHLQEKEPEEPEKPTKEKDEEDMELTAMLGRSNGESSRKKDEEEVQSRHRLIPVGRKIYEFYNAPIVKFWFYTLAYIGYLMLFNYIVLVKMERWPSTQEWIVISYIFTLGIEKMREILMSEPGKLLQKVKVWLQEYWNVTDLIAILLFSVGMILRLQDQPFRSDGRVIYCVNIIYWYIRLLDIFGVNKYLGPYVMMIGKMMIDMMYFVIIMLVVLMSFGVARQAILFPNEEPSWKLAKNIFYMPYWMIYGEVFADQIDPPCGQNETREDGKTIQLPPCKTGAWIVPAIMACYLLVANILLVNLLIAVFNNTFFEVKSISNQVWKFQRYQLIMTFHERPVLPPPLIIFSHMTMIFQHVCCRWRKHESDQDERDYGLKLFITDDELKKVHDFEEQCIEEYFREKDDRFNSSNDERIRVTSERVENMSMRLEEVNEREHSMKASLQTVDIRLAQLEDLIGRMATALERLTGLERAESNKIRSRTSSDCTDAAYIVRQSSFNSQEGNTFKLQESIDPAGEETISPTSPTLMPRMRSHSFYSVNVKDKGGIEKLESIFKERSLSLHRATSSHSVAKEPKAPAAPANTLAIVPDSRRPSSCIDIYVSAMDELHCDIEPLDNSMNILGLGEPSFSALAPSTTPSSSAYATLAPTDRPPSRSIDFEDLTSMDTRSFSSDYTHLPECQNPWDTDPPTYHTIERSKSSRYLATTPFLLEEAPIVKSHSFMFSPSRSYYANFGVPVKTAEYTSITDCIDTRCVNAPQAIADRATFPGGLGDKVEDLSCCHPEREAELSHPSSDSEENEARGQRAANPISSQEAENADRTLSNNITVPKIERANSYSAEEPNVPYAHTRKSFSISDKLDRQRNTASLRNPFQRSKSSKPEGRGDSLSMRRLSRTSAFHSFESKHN

Row | Structure (SMILES) | IC50 [nM]
1 | Cc1oc2ccc(OCc3ccccc3C(F)(F)F)cc2c1C(=O)NC1CCNC1=O (stereo not shown) [Cpd 219, 2-methyl-N-(2-oxopyrrolidin-3-yl)-5-((2-(trifluoromethyl)benzyl)oxy)benzofuran-3-carboxamide] | < 1000
2 | Cc1oc2ccc(OCc3ccccc3F)cc2c1C(=O)NC1CCNCC1(F)F (stereo not shown) [Cpd 201, N-(3,3-difluoropiperidin-4-yl)-5-((2-fluorobenzyl)oxy)-2-methylbenzofuran-3-carboxamide] | < 1000
3 | Cc1oc2ccc(OCc3ccccc3F)cc2c1C(=O)O [Cpd 008, 5-((2-fluorobenzyl)oxy)-2-methylbenzofuran-3-carboxylic acid] | < 1000
4 | Cc1oc2ccc(OCc3ccccc3)cc2c1C(=O)NC1CCN(C(C)C)CC1 [Cpd 185, 5-(benzyloxy)-N-(1-isopropylpiperidin-4-yl)-2-methylbenzofuran-3-carboxamide] | < 1000
5 | Cc1oc2ccc(OCc3ccccc3)cc2c1C(=O)NC1CC2CCC(C1)N2C (stereo not shown) [Cpd 181, 5-(benzyloxy)-2-methyl-N-(8-methyl-8-azabicyclo[3.2.1]octan-3-yl)benzofuran-3-carboxamide] | < 1000
6 | Cc1oc2ccc(OCc3ccccc3)cc2c1C(=O)Nc1ccn(C)n1 [Cpd 064, 5-(benzyloxy)-2-methyl-N-(1-methyl-1H-pyrazol-3-yl)benzofuran-3-carboxamide] | < 1000
7 | Cc1ccc(COc2ccc3oc(C)c(C(=O)O)c3c2)cc1 [Cpd 006, 2-methyl-5-((4-methylbenzyl)oxy)benzofuran-3-carboxylic acid] | 1000 to 20000
8 | Cc1oc2ccc(OCc3ccccc3)cc2c1C(=O)NC1CNCC1F (racemic) [Cpd 093, rac-5-(benzyloxy)-N-(trans-4-fluoropyrrolidin-3-yl)-2-methylbenzofuran-3-carboxamide] | < 1000
9 | Cc1oc2ccc(OCc3ccccc3)cc2c1C(=O)NC1CCNC(C)C1 (racemic) [Cpd 114, rac-5-(benzyloxy)-2-methyl-N-(trans-2-methylpiperidin-4-yl)benzofuran-3-carboxamide] | < 1000
10 | Cc1oc2ccc(OCc3ccccc3)cc2c1C(=O)NC1CCN2CCCC12 (single isomer, unassigned) [Cpd 144-Dia 2, 5-(benzyloxy)-N-(hexahydro-1H-pyrrolizin-1-yl)-2-methylbenzofuran-3-carboxamide] | < 1000
11 | Cc1oc2ccc(OCc3ccccc3)cc2c1C(=O)N[C@H]1CCNC1=O [Cpd 069, (S)-5-(benzyloxy)-2-methyl-N-(2-oxopyrrolidin-3-yl)benzofuran-3-carboxamide] | < 1000
12 | Cc1cccc(COc2ccc3oc(C)c(C(=O)O)c3c2)c1 [Cpd 005, 2-methyl-5-((3-methylbenzyl)oxy)benzofuran-3-carboxylic acid] | < 1000
13 | Cc1oc2ccc(OCc3ccccc3)cc2c1C(=O)NC1CC2(CCNCC2)C1 [Cpd 180, 5-(benzyloxy)-2-methyl-N-(7-azaspiro[3.5]nonan-2-yl)benzofuran-3-carboxamide] | < 1000
14 | Cc1oc2ccc(OCc3c(F)cccc3Cl)cc2c1C(=O)O [Cpd 021, 5-((2-chloro-6-fluorobenzyl)oxy)-2-methylbenzofuran-3-carboxylic acid] | 1000 to 20000
15 | Cc1oc2ccc(OCc3ccccc3)cc2c1C(=O)N[C@H]1CN[C@H](C(N)=O)C1 [Cpd 158, (2S,4R)-4-(5-(benzyloxy)-2-methylbenzofuran-3-carboxamido)pyrrolidine-2-carboxamide] | < 1000
16 | Cc1oc2ccc(OCc3ccccc3)cc2c1C(=O)NC1CCNCC1 [Cpd 074, 5-(benzyloxy)-2-methyl-N-(piperidin-4-yl)benzofuran-3-carboxamide] | < 1000
17 | Cc1oc2ccc(OCc3ccccc3)cc2c1C(=O)NCc1nnc2ncccn12 [Cpd 196, N-([1,2,4]triazolo[4,3-a]pyrimidin-3-ylmethyl)-5-(benzyloxy)-2-methylbenzofuran-3-carboxamide] | 1000 to 20000
18 | COc1ccccc1COc1ccc2oc(C)c(C(=O)O)c2c1 [Cpd 013, 5-((2-methoxybenzyl)oxy)-2-methylbenzofuran-3-carboxylic acid] | 1000 to 20000
19 | Cc1oc2ccc(OCc3cccc(F)c3F)cc2c1C(=O)NC1CNCC1(F)F (stereo not shown) [Cpd 211, 5-((2,3-difluorobenzyl)oxy)-N-(4,4-difluoropyrrolidin-3-yl)-2-methylbenzofuran-3-carboxamide] | < 1000
20 | Cc1oc2ccc(OCc3ccccc3)cc2c1C(=O)N[C@H]1C[C@H]2CN(C)CCN2C1 [Cpd 205, 5-(benzyloxy)-2-methyl-N-((7S,8aS)-2-methyloctahydropyrrolo[1,2-a]pyrazin-7-yl)benzofuran-3-carboxamide] | 1000 to 20000
21 | Cc1oc2ccc(OCc3ccccc3)cc2c1C(=O)N[C@@H]1CCCN(C2COC2)C1 [Cpd 207, (R)-5-(benzyloxy)-2-methyl-N-(1-(oxetan-3-yl)piperidin-3-yl)benzofuran-3-carboxamide] | < 1000
22 | Cc1oc2ccc(OCc3ccccc3)cc2c1C(=O)NC1CNC(=O)C1 (stereo not shown) [Cpd 068, 5-(benzyloxy)-2-methyl-N-(5-oxopyrrolidin-3-yl)benzofuran-3-carboxamide] | 1000 to 20000
23 | COc1ccccc1COc1ccc2oc(C)c(C(=O)NS(=O)(=O)C3CC3)c2c1 [Cpd 199, N-(cyclopropylsulfonyl)-5-((2-methoxybenzyl)oxy)-2-methylbenzofuran-3-carboxamide] | < 1000
24 | Cc1oc2ccc(OCc3ccccc3)cc2c1C(=O)N1CC[C@@H](N(C)C)C1 [Cpd 118, (R)-(5-(benzyloxy)-2-methylbenzofuran-3-yl)(3-(dimethylamino)pyrrolidin-1-yl)methanone] | > 20000
25 | Cc1oc2ccc(OCc3c(F)cccc3F)cc2c1C(=O)NC1CCNC1=O (stereo not shown) [Cpd 172, 5-((2,6-difluorobenzyl)oxy)-2-methyl-N-(2-oxopyrrolidin-3-yl)benzofuran-3-carboxamide] | < 1000
26 | Cc1oc2ccc(OCc3ccccc3)cc2c1C(=O)N[C@@H]1C[C@H]2COC[C@@H](C1)N2C(=O)OC(C)(C)C [Cpd 265, tert-butyl (1R,5S,7r)-7-(5-(benzyloxy)-2-methylbenzofuran-3-carboxamido)-3-oxa-9-azabicyclo-[3.3.1]nonane-9-carboxylate] | > 20000
27 | Cc1oc2ccc(OCc3ccccc3)cc2c1C(=O)NCCN(C)C [Cpd 055, 5-(benzyloxy)-N-(2-(dimethylamino)ethyl)-2-methylbenzofuran-3-carboxamide] | 1000 to 20000

Results, then the compound that gave them:

Row | IC50 [nM] | Structure (SMILES)
28 | 1000 to 20000 | Cc1oc2ccc(OCc3c(F)cccc3F)cc2c1C(=O)N[C@H]1CCN(C(=O)OC(C)(C)C)C1 [Cpd 257, tert-butyl (S)-3-(5-((2,6-difluorobenzyl)oxy)-2-methylbenzofuran-3-carboxamido)pyrrolidine-1-carboxylate]
29 | 1000 to 20000 | Cc1oc2ccc(OCc3ccccc3)cc2c1C(=O)N[C@H]1C[C@H]2C(=O)N(C)CC(=O)N2C1 [Cpd 235, 5-(benzyloxy)-2-methyl-N-((7S,8aS)-2-methyl-1,4-dioxooctahydropyrrolo[1,2-a]pyrazin-7-yl)benzofuran-3-carboxamide]
30 | > 20000 | Cc1oc2ccc(OCc3ccccc3)cc2c1C(=O)N1CCCC(C(=O)NCC(C)C)C1 (stereo not shown) [Cpd 236, 1-(5-(benzyloxy)-2-methylbenzofuran-3-carbonyl)-N-isobutylpiperidine-3-carboxamide]
31 | 1000 to 20000 | Cc1oc2ccc(OCc3ccccc3)cc2c1C(=O)NC1(CNC(=O)OC(C)(C)C)CCC1 [Cpd 246, tert-butyl ((1-(5-(benzyloxy)-2-methylbenzofuran-3-carboxamido)cyclobutyl)methyl)carbamate]
32 | < 1000 | Cc1oc2ccc(OCc3ccccc3F)cc2c1C(=O)NC1(CO)CCC1 [Cpd 324, 5-((2-fluorobenzyl)oxy)-N-(1-(hydroxymethyl)cyclobutyl)-2-methylbenzofuran-3-carboxamide]
33 | 1000 to 20000 | Cc1oc2ccc(OC(CN(C)C)c3ccccc3)cc2c1C(=O)N[C@@H](CO)C(N)=O (single isomer, unassigned) [Cpd 347-En 1]
34 | 1000 to 20000 | Cc1oc2c(Cl)cc(OCc3ccccc3)cc2c1C(=O)NC1CNCC1(F)F (single isomer, unassigned) [Cpd 304-En 1, 5-(benzyloxy)-7-chloro-N-(4,4-difluoropyrrolidin-3-yl)-2-methylbenzofuran-3-carboxamide]
35 | < 1000 | Cc1oc2ccc(OC(C)c3ccccc3)cc2c1C(=O)NC1(C(N)=O)CCC1 (single isomer, unassigned) [Cpd 343-En 2, N-(1-carbamoylcyclobutyl)-2-methyl-5-(1-phenylethoxy)benzofuran-3-carboxamide]
36 | < 1000 | Cc1oc2ccc(OCc3ccccc3F)cc2c1C(=O)NC1(CO)CC1 [Cpd 325, 5-((2-fluorobenzyl)oxy)-N-(1-(hydroxymethyl)cyclopropyl)-2-methylbenzofuran-3-carboxamide]
37 | < 1000 | Cc1oc2ccc(OCc3ccccc3F)cc2c1C(=O)NC(C)(CO)CO [Cpd 312, N-(1,3-dihydroxy-2-methylpropan-2-yl)-5-((2-fluorobenzyl)oxy)-2-methylbenzofuran-3-carboxamide]
38 | > 20000 | Cc1oc2ccc(OCc3ccccc3)cc2c1C(=O)N1CCC(NC(=O)OC(C)(C)C)CC1 [Cpd 248, tert-butyl (1-(5-(benzyloxy)-2-methylbenzofuran-3-carbonyl)piperidin-4-yl)carbamate]
39 | 1000 to 20000 | Cc1oc2ccc(OCc3ccccc3C(F)(F)F)cc2c1C(=O)NC1CCN(C)CC1 [Cpd 233, 2-methyl-N-(1-methylpiperidin-4-yl)-5-((2-(trifluoromethyl)benzyl)oxy)benzofuran-3-carboxamide]
40 | 1000 to 20000 | Cc1oc2ccc(OCc3ccccc3)cc2c1C(=O)NC1(CO)CCN(C(=O)OC(C)(C)C)CC1 [Cpd 262, tert-butyl 4-(5-(benzyloxy)-2-methylbenzofuran-3-carboxamido)-4-(hydroxymethyl)piperidine-1-carboxylate]
